Measurements taken from ChEMBL document CHEMBL5356973 (J Med Chem, 2023).
Calls of active or inactive are those of the source. No cut-off for these calls is given here.

Columns and labels:
[1] = target: T1, Mu-type opioid receptor (Homo sapiens, UniProt P35372); experiment: Agonist activity at MOR (unknown origin) transfected in CHO cells co-expressing Galphaq15 assessed as increase in calcium mobilization by Fluo-4AM dye based assay; type: functional, cell-based
[2] = target: T1, Mu-type opioid receptor; experiment: Agonist activity at MOR (unknown origin) transfected in CHO cells co-expressing Galphaq15 assessed as increase in calcium mobilization by measuring maximal efficacy by Fluo-4AM dye based assay relative to control; type: functional, cell-based; settings: filed as agonist
[3] = target: T2, Kappa-type opioid receptor (Homo sapiens, UniProt P41145); experiment: Agonist activity at KOR (unknown origin) transfected in CHO cells co-expressing Galphaq15 assessed as increase in calcium mobilization by Fluo-4AM dye based assay; type: functional, cell-based
T2 sequence (P41145 whole entry): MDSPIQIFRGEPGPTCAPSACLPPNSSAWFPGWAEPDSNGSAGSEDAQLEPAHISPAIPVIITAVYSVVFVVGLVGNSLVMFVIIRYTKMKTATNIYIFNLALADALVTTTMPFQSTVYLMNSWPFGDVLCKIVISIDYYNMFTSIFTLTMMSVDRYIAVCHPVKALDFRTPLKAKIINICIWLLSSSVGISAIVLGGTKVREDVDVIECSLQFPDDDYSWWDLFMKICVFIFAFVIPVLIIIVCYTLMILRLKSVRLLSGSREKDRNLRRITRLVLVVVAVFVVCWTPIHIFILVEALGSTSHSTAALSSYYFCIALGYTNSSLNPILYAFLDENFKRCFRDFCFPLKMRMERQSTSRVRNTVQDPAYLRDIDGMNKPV

[4] = target: T2, Kappa-type opioid receptor; experiment: Agonist activity at KOR (unknown origin) transfected in CHO cells co-expressing Galphaq15 assessed as increase in calcium mobilization by measuring maximal efficacy by Fluo-4AM dye based assay relative to control; type: functional, cell-based; settings: filed as agonist
[5] = target: T3, Delta-type opioid receptor (Homo sapiens, UniProt P41143); experiment: Agonist activity at DOR (unknown origin) transfected in CHO cells co-expressing Galphaq15 assessed as increase in calcium mobilization by Fluo-4AM dye based assay; type: functional, cell-based
T3 sequence (P41143 whole entry): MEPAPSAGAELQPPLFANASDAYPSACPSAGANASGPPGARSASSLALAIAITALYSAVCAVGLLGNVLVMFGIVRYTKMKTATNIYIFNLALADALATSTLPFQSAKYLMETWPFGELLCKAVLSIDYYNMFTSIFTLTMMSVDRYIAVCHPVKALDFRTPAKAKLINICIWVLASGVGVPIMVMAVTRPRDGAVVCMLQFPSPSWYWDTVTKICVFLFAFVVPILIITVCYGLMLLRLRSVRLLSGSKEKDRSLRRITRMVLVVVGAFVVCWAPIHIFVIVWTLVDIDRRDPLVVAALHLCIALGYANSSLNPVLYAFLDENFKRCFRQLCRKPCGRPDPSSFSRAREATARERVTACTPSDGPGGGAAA

[6] = target: T3, Delta-type opioid receptor; experiment: Agonist activity at DOR (unknown origin) transfected in CHO cells co-expressing Galphaq15 assessed as increase in calcium mobilization by measuring maximal efficacy by Fluo-4AM dye based assay relative to control; type: functional, cell-based; settings: filed as agonist
[7] = Agonist activity at NPFF1R (unknown origin) transfected in CHO cells co-expressing Galphaq15 assessed as increase in calcium mobilization by measuring maximal efficacy by Fluo-4AM dye based assay relative to control; type: functional, cell-based; settings: Homo sapiens, filed as agonist
[8] = target: T4, Neuropeptide FF receptor 2 (Homo sapiens, UniProt Q9Y5X5); experiment: Agonist activity at NPFF2R (unknown origin) transfected in HEK293 cells co-expressing Galphaq15 assessed as increase in calcium mobilization by Fluo-4AM dye based assay; type: functional, cell-based
T4 sequence (Q9Y5X5 whole entry): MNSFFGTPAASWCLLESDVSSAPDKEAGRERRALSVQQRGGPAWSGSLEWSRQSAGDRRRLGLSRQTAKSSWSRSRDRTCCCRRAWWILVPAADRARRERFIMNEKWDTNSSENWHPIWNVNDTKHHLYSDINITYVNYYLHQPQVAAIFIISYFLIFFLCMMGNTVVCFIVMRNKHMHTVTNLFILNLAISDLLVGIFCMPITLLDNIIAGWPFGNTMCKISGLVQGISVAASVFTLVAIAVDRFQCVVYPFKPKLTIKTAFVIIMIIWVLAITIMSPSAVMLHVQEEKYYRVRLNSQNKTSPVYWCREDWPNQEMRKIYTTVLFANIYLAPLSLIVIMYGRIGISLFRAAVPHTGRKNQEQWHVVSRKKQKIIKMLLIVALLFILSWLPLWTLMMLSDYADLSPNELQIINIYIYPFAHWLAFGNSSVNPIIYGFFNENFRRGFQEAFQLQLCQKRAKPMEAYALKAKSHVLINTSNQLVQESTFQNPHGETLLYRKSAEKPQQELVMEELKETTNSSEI

[9] = target: T4, Neuropeptide FF receptor 2; experiment: Agonist activity at NPFF2R (unknown origin) transfected in HEK293 cells co-expressing Galphaq15 assessed as increase in calcium mobilization by measuring maximal efficacy by Fluo-4AM dye based assay relative to control; type: functional, cell-based; settings: filed as agonist
[10] = Metabolic stability in mouse plasma assessed as degradation half life at 10 mM measured upto 480 mins by RP-HPLC analysis; type: ADME, cell-free
[11] = Metabolic stability in mouse brain homogenate assessed as degradation half life at 10 mM measured upto 480 mins by RP-HPLC analysis; type: ADME, tissue-based
[12] = tested on: Mus musculus; experiment: Antinociceptive activity in Kunming mouse assessed as changes in tail flick latency by measuring maximal possible effect at 26.1 nmol/kg, sc measured after 20 mins by tail-flick test; type: functional
[13] = tested on: Mus musculus; experiment: Antinociceptive activity in Kunming mouse assessed as changes in tail flick latency by measuring maximal possible effect at 26.1 nmol/kg, sc measured after 30 mins by tail-flick test; type: functional; settings: 0.5 h
[14] = tested on: Mus musculus; experiment: Antinociceptive activity in Kunming mouse assessed as changes in tail flick latency by measuring maximal possible effect at 26.1 nmol/kg, sc measured after 60 mins by tail-flick test; type: functional; settings: 1 h
[15] = tested on: Mus musculus; experiment: Antinociceptive activity in Kunming mouse assessed as changes in tail flick latency by measuring maximal possible effect at 26.1 nmol/kg, sc measured after 120 mins by tail-flick test; type: functional; settings: 2 h
[16] = tested on: Mus musculus; experiment: Antinociceptive activity in Kunming mouse assessed as changes in tail flick latency by measuring maximal possible effect at 26.1 nmol/kg, sc measured after 240 mins by tail-flick test; type: functional; settings: 4 h
[17] = tested on: Mus musculus; experiment: Antinociceptive activity in Kunming mouse assessed as changes in tail flick latency by measuring time duration of antinociceptive effect at 26.1 nmol/kg, sc by tail-flick test; type: functional
[18] = tested on: Mus musculus; experiment: Antinociceptive activity in Kunming mouse assessed as changes in tail flick latency at 26.1 nmol/kg, sc pretreated with naloxone methiodide at 5 nmol, icv for 10 mins followed by compound addition and measured for 360 mins by tail-flick test; type: functional, organism-based
[19] = tested on: Mus musculus; experiment: Antinociceptive activity in Kunming mouse assessed as changes in tail flick latency by measuring maximal possible effect at 8.8 nmol/kg, sc measured after 20 mins by tail-flick test; type: functional
[20] = tested on: Mus musculus; experiment: Antinociceptive activity in Kunming mouse assessed as changes in tail flick latency by measuring maximal possible effect at 8.8 nmol/kg, sc measured after 30 mins by tail-flick test; type: functional; settings: 0.5 h
[21] = tested on: Mus musculus; experiment: Antinociceptive activity in Kunming mouse assessed as changes in tail flick latency by measuring maximal possible effect at 8.8 nmol/kg, sc measured after 60 mins by tail-flick test; type: functional; settings: 1 h
[22] = tested on: Mus musculus; experiment: Antinociceptive activity in Kunming mouse assessed as changes in tail flick latency by measuring maximal possible effect at 8.8 nmol/kg, sc measured after 120 mins by tail-flick test; type: functional; settings: 2 h
[23] = tested on: Mus musculus; experiment: Antinociceptive activity in Kunming mouse assessed as changes in tail flick latency by measuring maximal possible effect at 8.8 nmol/kg, sc measured after 240 mins by tail-flick test; type: functional; settings: 4 h
[24] = tested on: Mus musculus; experiment: Antinociceptive activity in Kunming mouse assessed as changes in tail flick latency by measuring time duration of antinociceptive effect at 8.8 nmol/kg, sc by tail-flick test; type: functional
[25] = tested on: Mus musculus; experiment: Antinociceptive activity in Kunming mouse assessed as changes in tail flick latency at 8.8 nmol/kg, sc pretreated with naloxone methiodide at 5 nmol, icv for 10 mins followed by compound addition and measured for 360 mins by tail-flick test; type: functional, organism-based

T1 sequence (P35372 whole entry): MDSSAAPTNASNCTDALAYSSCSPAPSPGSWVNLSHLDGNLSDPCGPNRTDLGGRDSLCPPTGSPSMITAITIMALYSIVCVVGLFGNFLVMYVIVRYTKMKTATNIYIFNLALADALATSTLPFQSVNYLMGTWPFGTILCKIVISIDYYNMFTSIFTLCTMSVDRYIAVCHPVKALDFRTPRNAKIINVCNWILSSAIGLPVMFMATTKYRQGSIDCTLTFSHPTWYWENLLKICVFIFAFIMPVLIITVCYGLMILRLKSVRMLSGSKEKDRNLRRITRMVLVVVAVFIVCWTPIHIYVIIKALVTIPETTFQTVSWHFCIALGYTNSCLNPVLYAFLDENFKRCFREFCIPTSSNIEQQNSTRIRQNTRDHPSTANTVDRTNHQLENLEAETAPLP

Row | SMILES | EC50 [1] [nM] | Emax [2] [%] | EC50 [3] [nM] | Emax [4] [%] | EC50 [5] [nM] | Emax [6] [%] | Emax [7] [%] | EC50 [8] [nM] | Emax [9] [%] | half-life at 10000 µM [10] [h] | half-life at 10000 µM [11] [h] | MPE [12] [%] | MPE [13] [%] | MPE [14] [%] | MPE [15] [%] | MPE [16] [%] | Time [17] [min] | Activity [18] | MPE [19] [%] | MPE [20] [%] | further results
1 | CN1C(=O)CNC(=O)[C@H](N[C@@H](Cc2ccc(O)cc2)C(=O)O)CCCC/C=C\CC[C@@H](C(=O)N2CCC[C@H]2C(=O)N[C@@H](CCC(N)=O)C(=O)N[C@@H](CCCNC(=N)N)C(=O)N[C@@H](Cc2ccccc2)C(N)=O)NC(=O)[C@@H]1Cc1ccccc1 | 92.3 | 109 | 503 | 128 | 58.2 | 97.5 | 105 | 1080 | 88.6 | 0.625 | 1.95 | 93 | 93.7 | 77.4 | 73.5 | 36 | 360 | inactive | – | – | –
2 | CN1C(=O)CNC(=O)[C@H](N[C@@H](Cc2ccc(O)cc2)C(=O)O)CCCC/C=C/CC[C@@H](C(=O)N2CCC[C@H]2C(=O)N[C@@H](CCC(N)=O)C(=O)N[C@@H](CCCNC(=N)N)C(=O)N[C@@H](Cc2ccccc2)C(N)=O)NC(=O)[C@@H]1Cc1ccccc1 | 1.2 | 84.6 | 132 | 100 | 13.4 | 73.8 | 91.9 | 9770 | 125 | 1.01 | 2.26 | 91.9 | 92.1 | 80.3 | 69 | 42.3 | 360 | inactive | – | – | –
3 | CN1C(=O)CNC(=O)[C@H](N[C@@H](Cc2ccc(O)cc2)C(=O)O)CCC/C=C/CC[C@@H](C(=O)N2CCC[C@H]2C(=O)N[C@@H](CCC(N)=O)C(=O)N[C@@H](CCCNC(=N)N)C(=O)N[C@@H](Cc2ccccc2)C(N)=O)NC(=O)[C@@H]1Cc1ccccc1 | 7.6 | 102 | 273 | 96.4 | 23.9 | 98.2 | 91.8 | 3110 | 118 | 0.537 | 1.83 | – | – | – | – | – | – | – | 89.9 | 96.5 | MPE [21]: 72.1%; MPE [22]: 74.2%; MPE [23]: 47.8%; Time [24]: 360 min; Activity [25]: inactive
4 | CC(C)C[C@H](NC(=O)[C@@H](N)Cc1ccccc1)C(=O)N[C@@H](Cc1ccccc1)C(=O)N[C@@H](CCC(N)=O)C(=O)N1CCC[C@H]1C(=O)N[C@@H](CCC(N)=O)C(=O)N[C@@H](CCCN=C(N)N)C(=O)N[C@@H](Cc1ccccc1)C(N)=O | – | – | – | – | – | – | 97.9 | – | – | – | – | – | – | – | – | – | – | – | – | – | –
5 | CN1C(=O)CNC(=O)[C@@H](N[C@@H](Cc2ccc(O)cc2)C(=O)O)C/C=C/CCCC[C@H](C(=O)N2CCC[C@H]2C(=O)N[C@@H](CCC(N)=O)C(=O)N[C@@H](CCCNC(=N)N)C(=O)N[C@@H](Cc2ccccc2)C(N)=O)NC(=O)[C@@H]1Cc1ccccc1 | 2900 | 81 | 1230 | 56.1 | 8920 | 99.4 | 124 | 3760 | 40.9 | 0.13 | 1.47 | – | – | – | – | – | – | – | 92.8 | 93.6 | MPE [21]: 79%; MPE [22]: 71.5%; MPE [23]: 41.6%; Time [24]: 360 min; Activity [25]: inactive
